# Source: patent US20110312934A1, “2-ALKYL-6-CYCLOAMINO-3-(PYRIDIN-4-YL)IMIDAZO[1,2-B]-PYRIDAZINE DERIVATIVES, PREPARATION THEREOF, AND THERAPEUTIC APPLICATION THEREOF” (SANOFI-AVENTIS, priority 2008, published 2011)
# Experiments:
# [1] = biological target: T1, casein kinase 1 epsilon (CK1 epsilon) (Homo sapiens, UniProt P49674); assay: Filter-plate assay of ATP-33P, inhibition of phosphorylation of casein by CK1 epsilon; type: biochemical; conditions: ATP-33P filtration, cold ATP 10 μM final, 2 hours at ambient temperature, read-out: CK1 epsilon Cl50
# T1 construct: Invitrogen Corporation (alternative)
# T1 sequence (P49674 whole entry): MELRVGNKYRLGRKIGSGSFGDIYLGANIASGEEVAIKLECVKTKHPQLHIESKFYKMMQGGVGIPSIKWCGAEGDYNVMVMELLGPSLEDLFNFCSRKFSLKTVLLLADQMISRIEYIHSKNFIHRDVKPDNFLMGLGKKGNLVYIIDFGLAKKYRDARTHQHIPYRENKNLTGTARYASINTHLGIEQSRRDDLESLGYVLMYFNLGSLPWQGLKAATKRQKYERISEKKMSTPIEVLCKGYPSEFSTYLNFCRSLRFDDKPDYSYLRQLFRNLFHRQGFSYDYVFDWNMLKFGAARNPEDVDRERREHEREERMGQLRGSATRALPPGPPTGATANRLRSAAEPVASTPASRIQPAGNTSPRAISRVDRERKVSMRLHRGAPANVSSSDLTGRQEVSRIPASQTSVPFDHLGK
# Method: The capacity of the compounds of the invention to inhibit the phosphorylation of casein by casein kinase 1 epsilon and delta may be evaluated according to the procedure described in US 2005/0131012.
# Filter-Plate Assay of ATP-^33P for the Screening of CK1 Epsilon Inhibitors:
# The effect of the compounds on inhibition of the phosphorylation of casein by the enzyme casein kinase 1 epsilon (CK1 epsilon) is measured, using a casein assay with filtration of ATP-^33P in vitro.
# Casein kinase 1 epsilon (0.58 mg/ml) is obtained via fermentation and purification processes performed according to methods that are well known to those skilled in the art, or may also be obtained from Invitrogen Corporation™ (human CK1 epsilon).
# The compounds are tested at five different concentrations so as to generate IC50 values, i.e. the concentration at which a compound is capable of inhibiting the enzymatic activity by 50%, or alternatively the percentage of inhibition at a concentration of 10 micromolar.
# “U”-bottomed Falcon plates are prepared by placing 5 μl of solutions of the compounds according to the invention at concentrations of 10, 1, 0.1, 0.01 or 0.001 μM in different wells. The solutions of the compounds according to the invention at these various concentrations are prepared by diluting in a test buffer (50 mM Tris, pH 7.5, […], 2 mM DTT and 1 mM EGTA) a stock solution in DMSO at a concentration of 10 mM. Next, 5 μl of dephosphorylated casein are added to a final concentration of 0.2 μg/μl, 20 μl of CK1 epsilon to a final concentration of 3 ng/μl, and 20 μl of ATP-^33P to a final concentration of 0.02 μCi/μl mixed with cold ATP (10 μM final—approximately 2×10^6 CPM per well). The final total test volume per well is equal to 50 μl.
# The “U”-bottomed Falcon® test plate mentioned above is vortexed, and then incubated at ambient temperature for 2 hours. After 2 hours, the reaction is stopped by adding an ice-cold solution of 65 μl of ATP (2 mM) prepared in test buffer.
# 100 μl of the reaction mixture are then transferred from the “U”-bottomed Falcon® plate into Millipore® MAPH filter plates, preimpregnated with 25 μl of ice-cold 100% TCA. […]
# The plates are left to dry overnight at ambient temperature. […] The radiation emitted by each well is then measured for 2 minutes in a Packard® Topcount NXT scintillation counter, in which the values of CPM/well are measured.
# The percentage inhibition of the capacity of the enzyme to phosphorylate the substrate (casein) is determined for each concentration of compound tested. These inhibition data expressed as percentages are used to calculate the IC50 value for each compound compared with the controls.
# The kinetic studies determined the KM value for ATP as being 21 μM in this test system.
# [2] = test system: Mper1-luc Rat-1 (P2C4) fibroblasts; assay: Circadian cell assay (mPer1 luciferase reporter, period prolongation); type: cell-based; conditions: effective concentration that induced a 1-hour prolongation of the circadian period, interpolated from hyperbolic curve
# Method: Mper1-luc Rat-1 (P2C4) fibroblast cultures were prepared by dividing the cultures every 3-4 days (approximately 10-20% of confluence) on 150 cm^2 degassed polystyrene tissue culture flasks (Falcon® #35-5001) and maintained in growth medium [EMEM (Cellgro #10-0,0-CV); 10% foetal bovine serum (FBS; Gibco #16000-044); and 50 I.U./ml of penicillin-streptomycin (Cellgro #30-001-CI)] at 37° C. and under 5% CO2.
# Cells obtained from Rat-1 fibroblast cultures at 30-50% of confluence as described above were co-transfected with vectors containing the selection marker for resistance to zeocin for a stable transfection and a luciferase reporter gene controlled by the mPer-1 promoter. After 24 to 48 hours, the cultures were divided on 96-well plates and maintained in growth medium supplemented with 50-100 μg/ml of zeocin (Invitrogen® #45-0430) for 10-14 days. The zeocin-resistant stable transfectants were evaluated for the expression of the reporter by adding 100 μM luciferin (Promega® #E1603®) to the growth medium and by assaying the luciferase activity on a TopCount® scintillation counter (Packard Model #C384V00). The Rat-1 cell clones expressing both zeocin resistance and lucerifase activity controlled by mPer1 were serum-shock synchronized with 50% horse serum [HS (Gibco® #16050-122)] and the activity of the circadian reporter was evaluated. The P2C4 clone of Mper1-luc Rat-1 fibroblasts was selected to test the compound.
# Mper1-luc Rat-1 (P2C4) fibroblasts at 40-50% of confluence, obtained according to the protocol described above, were plated out onto 96-well opaque tissue culture plates (Perkin Elmer® #6005680). The cultures are maintained in growth medium supplemented with 100 μg/ml of zeocin (Invitrogen #45-0430) until they reach 100% of confluence (48-72 h). The cultures were then synchronized with 100 μl of synchronization medium [EMEM (Cellgro #10-0,0-CV); 100 I.U./ml of penicillin-streptomycin (Cellgro #30-001-C1); 50% HS (Gibco #16050-122)] for 2 hours at 37° C. and under 5% CO2. After synchronization, the cultures were rinsed with 100 μl of EMEM (Cellgro #10-010-CV) for 10 minutes at ambient temperature. After rinsing, the medium was replaced with 300 μl of CO2 independent medium [CO2I (Gibco #18045-088); 2 mM L-glutamine (Cellgro #25-005-C1); 100 U.I./ml of penicillin-streptomycin (Cellgro #30-001-C1); 100 μM luciferin (Promega #E 1603)]. […]
# The two methods produced a virtually identical period estimation on a range of circadian periods. […] The data were analysed by adjusting a hyperbolic curve to the data expressed as change of period (y-axis) as a function of the concentration of the test compound (x-axis) in the XLfit™ software and the CE Delta (t+1 h) was interpolated from this curve.
# human CK1 delta = biological target: T2, human CK1 delta (Homo sapiens, UniProt P48730); assay: FRET Z'Lyte kinase assay, CK1 delta; type: biochemical; conditions: peptide substrate SER/THR 11 2 μM, ATP 4 times the KM, read-out: CK1 delta Cl50
# T2 construct: purchased Invitrogen Corporation PV3665
# T2 sequence (P48730 whole entry): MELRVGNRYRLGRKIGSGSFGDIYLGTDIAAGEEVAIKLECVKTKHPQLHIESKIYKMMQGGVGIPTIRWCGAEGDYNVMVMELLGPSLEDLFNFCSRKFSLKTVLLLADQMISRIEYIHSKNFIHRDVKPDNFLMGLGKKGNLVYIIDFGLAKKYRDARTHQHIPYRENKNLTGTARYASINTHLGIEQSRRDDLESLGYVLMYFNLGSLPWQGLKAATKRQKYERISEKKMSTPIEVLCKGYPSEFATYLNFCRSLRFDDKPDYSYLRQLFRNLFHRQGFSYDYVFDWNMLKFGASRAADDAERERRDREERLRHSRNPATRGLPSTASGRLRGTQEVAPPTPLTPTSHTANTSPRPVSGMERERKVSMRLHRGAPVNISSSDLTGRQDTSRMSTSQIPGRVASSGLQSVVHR
# Description: The capacity of the compounds of the invention to inhibit the phosphorylation of casein by casein kinase 1 epsilon and delta may be evaluated using a FRET (Fluorescence Resonance Energy Transfer) fluorescence test with the aid of the Z'Lyte™ kinase assay Kit (reference PV3670; Invitrogen Corporation™) according to the manufacturer's instructions.
# The casein kinases 1 used are obtained from Invitrogen Corporation (human CK1 epsilon PV3500 and human CK1 delta PV3665).
# A peptide substrate, labelled at both ends with a fluorophore donor group (coumarin) and a fluorophore acceptor group (fluorescein), constituting a FRET system is phosphorylated in the presence of ATP by casein kinase 1 epsilon or delta in the presence of increasing concentrations of compounds of the invention.
# The mixture is treated with a site-specific protease that specifically cleaves the peptide substrate to form two fluorescent fragments having a large fluorescence emission ratio.
# The fluorescence observed is thus related to the capacity of the products of the invention to inhibit the phosphorylation of the peptide substrate by casein kinase 1 epsilon or casein kinase 1 delta. […]
# The emitted fluorescence is measured at wavelengths of 445 and 520 nm (excitation at 400 nm).
IC50 [1] [nM],IC50 (human CK1 delta) [nM],SMILES,CE Delta (t + 1 h) [2] [nM],melting point [°C]
292,–,"CC1(C)CN(c2ccc3nc(C4CC4)c(-c4ccnc(F)c4)n3n2)CCN1 [Compound 53, 2-Cyclopropyl-6-(3,3-dimethylpiperazin-1-yl)-3-(2-fluoropyridin-4-yl)imidazo[1,2-b]pyridazine]",319,–
–,< 1,"Cc1nc2ccc(N3C[C@@H](C)N[C@@H](C)C3)nn2c1-c1ccncc1 [Compound 54, 6-(cis-3,5-Dimethylpiperazin-1-yl)-2-methyl-3-pyridin-4-ylimidazo[1,2-b]pyridazine]",–,–
78,–,"Cc1nc2ccc(N3CCC4(CCCNC4)CC3)nn2c1-c1ccncc1 [Compound 78, 9-(2-Methyl-3-pyridin-4-yl-imidazo[1,2-b]pyridazin-6-yl)-2,9-diazaspiro[5.5]undecane]",515,–

SMILES,IC50 [1] [nM],IC50 (human CK1 delta) [nM],CE Delta (t + 1 h) [2] [nM],melting point [°C]
"Cc1nc2ccc(N3CC4CNCC4C3)nn2c1-c1ccncc1 (centres unmarked) [Compound 66, 6-Hexahydropyrrolo[3,4-c]pyrrol-2(1H)-yl-2-methyl-3-pyridin-4-ylimidazo[1,2-b]pyridazine]",13,–,633,153 to 155
